This is an account of results in patent publication US6472526B1, “Imidazole derivatives having an inhibitory activity for farnesyl transferase and process for preparation thereof” (LG Chemical Ltd., priority 1997, dated 2002).

Experiment [1] has as its target T1, Ras farnesyl transferase (Homo sapiens, UniProt P49354+P49356).
T1 construct: made in house
Nature of the experiment: In vitro inhibitory activity for Ras farnesyl transferase, K-Ras substrate. Format: biochemical.

Experiment [2] deals with T2, Ras farnesyl transferase (Rattus norvegicus, UniProt Q02293+Q04631).
T2 construct: endogenous in cells; host or cells: Rat2 fibroblasts transformed with H-Ras or with an H-Ras/K-Ras C-terminus fusion
Nature of the experiment: In vivo (cellular) inhibitory activity for Ras farnesyl transferase, Rat2 cell line transformed with fused protein of H-Ras substituted with polybasic lysine domain at C-terminus of K-Ras. In kind it is cell-based. The method, boiled down:
(§1)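 Farnesylated versus unfarnesylated Ras bands were measured by autoradiography after Y13-259 immunoprecipitation and SDS-PAGE, giving CIC50 as 50% inhibition of farnesylation. Rat2 cells expressing H-Ras or an H-Ras fusion with K-Ras polybasic C-terminus got compound (1% DMSO), then [35S]methionine from 4 h onward for 20 h.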

Experiment [3] deals with T1, Ras farnesyl transferase. Nature of the experiment: In vitro inhibitory activity for Ras farnesyl transferase, H-Ras substrate. Format: biochemical.
Experiment [4] addresses T2, Ras farnesyl transferase. Nature of the experiment: In vivo (cellular) inhibitory activity for Ras farnesyl transferase, Rat2 cell line which expresses C-Harvey-Ras protein. Format: cell-based. The method, boiled down: as §1
Where [5] appears, read: in vitro farnesyl transferase assay, K-Ras, read-out: K-Ras IC50.
The mark [6] stands for this setting: Rat2 cell line transformed with H-Ras fused with polybasic lysine domain of K-Ras C-terminus, concentration inhibiting 50% of farnesyl bonding, read-out: K-Ras CIC50.
Setting [7] is: recombinant farnesyl transferase 4.5 nM, Ras substrate protein 1.5 μM, tritium-farnesylpyrophosphate 0.15 μM, 30 minutes at 37° C., read-out: H-Ras IC50.
The mark [8] stands for this setting: Rat2 cell line expressing C-Harvey-Ras, concentration inhibiting 50% of farnesyl bonding of Ras protein, read-out: H-Ras CIC50.

Structures are written as SMILES.

On to `COCCN(C)C(=O)c1cn(Cc2cncn2Cc2ccccc2Cl)cc1-c1cccc2ccccc12` [Compound 134, 1-[1-(2-Chlorobenzyl)-1H-imidazol-5-yl]methyl-3-[N-(2-methoxyethyl)-N-methyl]carbamoyl-4-(naphthalen-1-yl)-1H-pyrrole], for which the IC50 on Ras farnesyl transferase [1] (setting [5]) was 0.002 µM; on Ras farnesyl transferase [2] (setting [6]), 10 to 50 µM; on Ras farnesyl transferase [3] (setting [7]), 0.0027 µM; at Ras farnesyl transferase [4] (setting [8]), 0.025 µM.

For the compound `CN1CCN(C(=O)c2cn(Cc3cncn3Cc3ccccc3F)cc2-c2cccc3ccccc23)CC1` [Compound 135, 1-[1-(2-Fluorobenzyl)-1H-imidazol-5-yl]methyl-3-(4-methylpiperazin-1-yl)carbonyl-4-(naphthalen-1-yl)-1H-pyrrole], the IC50 is 0.004 µM at Ras farnesyl transferase [1] (setting [5]), 10 to 50 µM on Ras farnesyl transferase [2] (setting [6]), 0.0024 µM on Ras farnesyl transferase [3] (setting [7]) and 0.03 µM at Ras farnesyl transferase [4] (setting [8]).

As to `Cc1ccc(Cn2cncc2Cn2cc(C(=O)N3CCN(C)CC3)c(-c3cccc4ccccc34)c2)cc1` [Compound 136], the IC50 at Ras farnesyl transferase [1] (setting [5]) was 0.0024 µM; on Ras farnesyl transferase [2] (setting [6]), 10 to 50 µM; on Ras farnesyl transferase [3] (setting [7]), 0.0016 µM; on Ras farnesyl transferase [4] (setting [8]) it was 0.025 µM.

`Cc1ccc(Cn2cncc2Cn2cc(C(=O)N3CCOCC3)c(-c3cccc4ccccc34)c2)cc1` [Compound 137]: the IC50 on Ras farnesyl transferase [1] (setting [5]) is 0.0021 µM; at Ras farnesyl transferase [2] (setting [6]), 10 to 20 µM; on Ras farnesyl transferase [3] (setting [7]), 0.0017 µM; on Ras farnesyl transferase [4] (setting [8]), 0.02 µM.

On to `Cc1cccc(Cn2cncc2Cn2cc(C(=O)N3CCN(C)CC3)c(-c3cccc4ccccc34)c2)c1` [Compound 138, 1-[1-(3-Methylbenzyl)-1H-imidazol-5-yl]methyl-3-(4-methylpiperazin-1-yl)carbonyl-4-(naphthalen-1-yl)-1H-pyrrole], for which the IC50 on Ras farnesyl transferase [1] (setting [5]) was 0.0035 µM; on Ras farnesyl transferase [2] (setting [6]) it was 10 to 50 µM; on Ras farnesyl transferase [3] (setting [7]) it was 0.0014 µM; on Ras farnesyl transferase [4] (setting [8]) it was 0.025 µM.

`N#Cc1ccc(Cn2cncc2Cn2ccc(C(=O)c3cccc4ccccc34)c2)cc1` [Compound 139, 1-[1-(4-Cyanobenzyl)-1H-imidazol-5-yl]methyl-3-(naphthalen-1-yl)carbonyl-1H-pyrrole]: the IC50 against Ras farnesyl transferase [1] worked out at 37 µM; at Ras farnesyl transferase [2], 7 µM; on Ras farnesyl transferase [3] it was 0.005 µM; on Ras farnesyl transferase [4], 0.07 µM.

As for `O=C(c1ccn(Cc2cncn2Cc2ccc(Br)cc2)c1)c1cccc2ccccc12` [Compound 140, 1-[1-(4-Bromobenzyl)-1H-imidazol-5-yl]methyl-3-(naphthalen-1-yl)carbonyl-1H-pyrrole], the IC50 against Ras farnesyl transferase [1] is 10 to 50 µM; against Ras farnesyl transferase [2], 10 to 50 µM; at Ras farnesyl transferase [3], 0.09 µM; on Ras farnesyl transferase [4] it was 1 to 10 µM.

Consider `COCCN(C)C(=O)c1cn(Cc2cncn2Cc2ccc(Br)cc2)cc1C(=O)c1cccc2ccccc12` [Compound 141], for which the IC50 at Ras farnesyl transferase [1] was 10 to 100 µM; against Ras farnesyl transferase [2] it was 10 to 50 µM; at Ras farnesyl transferase [3], 0.23 µM; against Ras farnesyl transferase [4] it was 1 to 10 µM.

As to `CCOC(=O)c1nc(Cc2cnc[nH]2)oc1-c1cccc2ccccc12` [Compound 142, 4-Ethoxycarbonyl-2-(1H-imidazol-5-ylmethyl)-5-(naphthalen-1-yl)oxazole], the IC50 at Ras farnesyl transferase [1] (setting [5]) is > 50 µM; at Ras farnesyl transferase [2] (setting [6]), > 50 µM; at Ras farnesyl transferase [3] (setting [7]), 12 µM; at Ras farnesyl transferase [4] (setting [8]), > 50 µM.

Consider `O=C(c1nc(Cc2cnc[nH]2)oc1-c1cccc2ccccc12)N1CCOCC1` [Compound 143, 2-(1H-Imidazol-5-ylmethyl)-4-(morpholin-4-yl)carbonyl-5-(naphthalen-1-yl)oxazole], for which the IC50 on Ras farnesyl transferase [1] (setting [5]) was > 50 µM; on Ras farnesyl transferase [2] (setting [6]), > 50 µM; at Ras farnesyl transferase [3] (setting [7]), 1.2 µM; at Ras farnesyl transferase [4] (setting [8]) it was 20 µM.

As for `COC(=O)c1nc(Cc2cncn2Cc2ccc(Cl)cc2)sc1-c1cccc2ccccc12` [Compound 145, 2-[1-(4-Chlorobenzyl)-1H-imidazol-5-ylmethyl]-4-methoxycarbonyl-5-(naphthalen-1-yl)thiazole], the IC50 came to 0.07 µM at Ras farnesyl transferase [1] (setting [5]), 25 µM at Ras farnesyl transferase [2] (setting [6]), 0.007 µM on Ras farnesyl transferase [3] (setting [7]) and 0.1 µM at Ras farnesyl transferase [4] (setting [8]).

For `COC(=O)c1sc(Cc2cncn2Cc2ccc(Cl)cc2)nc1-c1cccc2ccccc12` [Compound 148], the IC50 on Ras farnesyl transferase [1] (setting [5]) is > 50 µM; on Ras farnesyl transferase [2] (setting [6]) it was > 50 µM; on Ras farnesyl transferase [3] (setting [7]), 1.7 µM; on Ras farnesyl transferase [4] (setting [8]), 30 µM.

Turning to `COC(=O)c1sc(Cc2cncn2CC2CCN(C(=O)OCc3ccccc3)CC2)nc1-c1cccc2ccccc12` [Compound 150], the IC50 at Ras farnesyl transferase [1] (setting [5]) is > 50 µM; at Ras farnesyl transferase [2] (setting [6]) it was > 50 µM; on Ras farnesyl transferase [3] (setting [7]) it was 8 µM; on Ras farnesyl transferase [4] (setting [8]) it was > 50 µM.

For `COCCN(C)C(=O)c1cn(Cc2cncn2Cc2ccc(Cl)cc2)nc1-c1cccc2ccccc12` [Compound 155, 1-[1-(4-Chlorobenzyl)-1H-imidazol-5-ylmethyl]-4-[N-(2-methoxyethyl)-N-methyl]-carbamoyl-3-(naphthalen-1-yl)-1H-pyrazole], the IC50 at Ras farnesyl transferase [1] (setting [5]) amounted to 0.2 µM; on Ras farnesyl transferase [2] (setting [6]), 15 µM; on Ras farnesyl transferase [3] (setting [7]) it was 0.02 µM; on Ras farnesyl transferase [4] (setting [8]) it was 0.1 µM.

On to `COCCN(C)C(=O)c1cn(Cc2cncn2Cc2ccc(C#N)cc2)nc1-c1cccc2ccccc12` [Compound 156, 1-[1-(4-Cyanobenzyl)-1H-imidazol-5-ylmethyl]-4-[N-(2-methoxyethyl)-N-methyl]-carbamoyl-3-(naphthalen-1-yl)-1H-pyrazole], for which the IC50 on Ras farnesyl transferase [1] (setting [5]) was found to be 0.2 µM; at Ras farnesyl transferase [2] (setting [6]), 40 µM; on Ras farnesyl transferase [3] (setting [7]), 0.02 µM; on Ras farnesyl transferase [4] (setting [8]), 0.1 µM.

Turning to `COCCN(C)C(=O)c1cn(Cc2cncn2C)nc1-c1cccc2ccccc12` [Compound 157, 1-[1-Methyl-1H-imidazol-5-ylmethyl]-4-[N-(2-methoxyethyl)-N-methyl]-carbamoyl-3-(naphthalen-1-yl)-1H-pyrazole], the IC50 on Ras farnesyl transferase [1] (setting [5]) is 5 µM; at Ras farnesyl transferase [2] (setting [6]), > 50 µM; at Ras farnesyl transferase [3] (setting [7]), 0.01 µM; on Ras farnesyl transferase [4] (setting [8]), 0.1 µM.

With `O=C(c1cn(Cc2cncn2Cc2ccc(Br)cc2)nc1-c1cccc2ccccc12)N1CCOCC1` [Compound 160, 1-[1-(4-Bromobenzyl)-1H-imidazol-5-ylmethyl]-4-(morpholin-4-yl)carbonyl-3-(naphthalen-1-yl)-1H-pyrazole], the IC50 turned out to be 3 µM on Ras farnesyl transferase [1] (setting [5]), 40 µM at Ras farnesyl transferase [2] (setting [6]), 0.3 µM at Ras farnesyl transferase [3] (setting [7]) and 1.5 µM at Ras farnesyl transferase [4] (setting [8]).
